The text below walks through data of ChEMBL document CHEMBL1201862, “PubChem BioAssay data set” (2004).

Molecules are shown by their SMILES.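 Results reflect a 48-hour exposure of cells in 96-well plates to compound at five concentrations. GI50 is the concentration that inhibits growth by half.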 Activity calls are given as the source filed them. Cut-off read from the data, not from the text of the source: active = GI50 up to about 1.1 µM and inactive = higher.

Test systems include A498; COLO 205; EKVX; HCC 2998; HL-60; Hs-578T; KM12; LOX IMVI; MDA-MB-231; MDA-MB-435; MOLT-4; Malme-3M; NCI-H23; NCI/ADR-RES; OVCAR-5; RPMI-8226; SK-MEL-28; U-251; UACC-62.
Assay in all cases: DTP human tumour cell line panel, 48 h

Consider `OCCOc1ccc(-c2cc(-c3ccccn3)nc(-c3ccccn3)c2)cc1`, for which the GI50 in the test on A498 was 3.3 µM (inactive); in the test on COLO 205, 0.115 µM (active); with EKVX it was 0.107 µM (active); in the test on HCC 2998 it was 0.0578 µM (active); in the test with HL-60 it was 0.0538 µM (active); with Hs-578T, 1.37 µM (inactive). Moreover, the GI50 was 0.296 µM (active) in the test with KM12; 0.0916 µM (active) in the test with LOX IMVI; 1.39 µM (inactive) in the test on MDA-MB-231; 0.526 µM (active) with MDA-MB-435; 0.0767 µM (active) in the test on MOLT-4; 0.309 µM (active) in the test with Malme-3M. Also, the GI50 is 0.447 µM (active) in the test on NCI-H23; 0.202 µM (active) with NCI/ADR-RES; 0.192 µM (active) with OVCAR-5; 0.242 µM (active) with RPMI-8226; 0.249 µM (active) in the test with SK-MEL-28; 0.148 µM (active) in the test on U-251. In the test on UACC-62, the GI50 is 0.206 µM (active).

As to `[N-]=[N+]=CC(=O)C1CCCN1C(=O)c1ccccc1` (centres undefined), the GI50 in the test with A498, with COLO 205, with EKVX, in the test on HCC 2998, in the test with HL-60 and in the test on Hs-578T was > 10 µM (inactive) each time. Besides, the GI50 with KM12, in the test with LOX IMVI, with MDA-MB-231, with MDA-MB-435, with MOLT-4 and in the test on Malme-3M was > 10 µM (inactive) in each case. Further, the GI50 in the test on NCI-H23, in the test on NCI/ADR-RES, with OVCAR-5, with RPMI-8226, with SK-MEL-28 and in the test on U-251 was > 10 µM (inactive) each time. The GI50 in the test on UACC-62 was > 10 µM (inactive).

In the case of `O=S(=O)(O)CCCc1cccc2ccccc12`, the GI50 in the test on A498 was > 100 µM (inactive); in the test on COLO 205, > 100 µM (inactive); in the test with EKVX, > 100 µM (inactive); in the test with HCC 2998 it was > 100 µM (inactive); in the test with HL-60 it was 31.3 µM (inactive); in the test with Hs-578T, > 100 µM (inactive). In addition, the GI50 in the test on KM12, in the test with LOX IMVI, in the test on MDA-MB-231, with MDA-MB-435, in the test with MOLT-4 and in the test on Malme-3M was > 100 µM (inactive) throughout. Moreover, the GI50 in the test with NCI-H23, with NCI/ADR-RES, in the test with OVCAR-5, with RPMI-8226, in the test on SK-MEL-28 and with U-251 was > 100 µM (inactive) each time. The GI50 in the test on UACC-62 is > 100 µM (inactive).

With `C=C(Cl)[C@@](Cl)(CBr)CC[C@@H](Br)C(C)(C)Cl`, the 50% growth inhibitory concentration (GI50) in the test on A498 is 0.938 µM (active); in the test on COLO 205, 0.5 µM (active); in the test on EKVX, 2.97 µM (inactive); in the test on HCC 2998, 0.488 µM (active); with HL-60 it was 0.3 µM (active); in the test on Hs-578T, 0.386 µM (active). The GI50 is 0.228 µM (active) in the test on KM12; 13.2 µM (inactive) with LOX IMVI; 0.211 µM (active) in the test with MDA-MB-231; 1.4 µM (inactive) in the test on MDA-MB-435; 22.9 µM (inactive) with MOLT-4; 21.7 µM (inactive) in the test with Malme-3M. Further, the GI50 was 8.02 µM (inactive) with NCI-H23; 0.522 µM (active) in the test with NCI/ADR-RES; 1.59 µM (inactive) in the test with OVCAR-5; 0.0566 µM (active) in the test on RPMI-8226; 0.394 µM (active) in the test with SK-MEL-28; 0.154 µM (active) with U-251. Moreover, the GI50 with UACC-62 is 0.745 µM (active).

On to `CCCCCCCCCCCCCCCCCCOCC(O)COP(=O)(O)OCC1OC(n2cc(F)c(=O)[nH]c2=O)CC1O` (centres undefined), for which the GI50 is 2.66 µM (inactive) with A498; 5.15 µM (inactive) with COLO 205; 37 µM (inactive) in the test with EKVX; 0.0467 µM (active) in the test on HCC 2998; 6.56 µM (inactive) with HL-60; 14.3 µM (inactive) in the test with Hs-578T. For the same molecule, the GI50 was 14.5 µM (inactive) in the test with KM12; 0.658 µM (active) with LOX IMVI; 19.1 µM (inactive) in the test with MDA-MB-231; 17.7 µM (inactive) in the test with MDA-MB-435; 3.02 µM (inactive) in the test with MOLT-4; 14.4 µM (inactive) in the test on Malme-3M. Also, the GI50 in the test on NCI-H23 was 2.97 µM (inactive); in the test on NCI/ADR-RES, 2.05 µM (inactive); in the test on OVCAR-5, 12.5 µM (inactive); with RPMI-8226, 2.17 µM (inactive); with SK-MEL-28 it was 14.1 µM (inactive); with U-251, 1.75 µM (inactive). In addition, the 50% growth inhibitory concentration (GI50) with UACC-62 was 0.579 µM (active).

For the molecule `CC(C)(C)c1cc(C(=O)/C=C/c2cc[nH]n2)cc(C(C)(C)C)c1O`, the GI50 with A498 is 2.17 µM (inactive); in the test with COLO 205 it was 2.07 µM (inactive); in the test with EKVX, 13.4 µM (inactive); in the test on HCC 2998, 1.88 µM (inactive); with HL-60, 2.23 µM (inactive); with Hs-578T, 2.57 µM (inactive). Besides, the GI50 in the test on KM12 is 2.29 µM (inactive); in the test with LOX IMVI it was 1.85 µM (inactive); in the test with MDA-MB-231, 1.91 µM (inactive); in the test on MDA-MB-435, 2.77 µM (inactive); in the test with MOLT-4, 2.61 µM (inactive); in the test with Malme-3M it was 7.29 µM (inactive). Besides, the GI50 with NCI-H23 is 2.78 µM (inactive); in the test with NCI/ADR-RES it was 4.62 µM (inactive); in the test on OVCAR-5, 5.37 µM (inactive); in the test with RPMI-8226, 1.06 µM (active); in the test with SK-MEL-28, 6.11 µM (inactive); with U-251, 1.73 µM (inactive). Moreover, the GI50 in the test with UACC-62 is 3.26 µM (inactive).

Take `CNC1C(O)C(OC2C(N)CC(N)C(OC3OC(C(C)O)C(O)C(O)C3N)C2O)OCC1(C)O` (centres undefined): the GI50 with A498, with COLO 205, with EKVX, in the test on HCC 2998, with HL-60 and with Hs-578T was > 100 µM (inactive) throughout. For the same molecule, the GI50 with KM12 is > 100 µM (inactive); in the test on LOX IMVI it was > 100 µM (inactive); in the test on MDA-MB-231, > 100 µM (inactive); in the test with MDA-MB-435, > 100 µM (inactive); in the test with MOLT-4 it was > 100 µM (inactive); in the test on Malme-3M it was > 10 µM (inactive). For the same molecule, the GI50 with NCI-H23, in the test on NCI/ADR-RES, with OVCAR-5, in the test with RPMI-8226, in the test with SK-MEL-28 and with U-251 was > 100 µM (inactive) throughout. In the test on UACC-62, the GI50 is > 100 µM (inactive).

In the case of `CC(C)NCCCNc1c2ccccc2nc2cccc([N+](=O)[O-])c12`, the GI50 in the test on A498 is 0.0164 µM (active); in the test on COLO 205, 0.00161 µM (active); with EKVX, 0.0177 µM (active); with HCC 2998 it was 0.00406 µM (active); in the test on HL-60, 0.013 µM (active); in the test with Hs-578T it was 0.0383 µM (active). Moreover, the GI50 in the test on KM12 was 0.0169 µM (active); in the test on LOX IMVI, 0.0101 µM (active); in the test on MDA-MB-231, 0.0132 µM (active); in the test on MDA-MB-435 it was 0.0103 µM (active); with MOLT-4, 0.00211 µM (active); in the test with Malme-3M, 0.0133 µM (active). Besides, the GI50 is 0.00156 µM (active) in the test with NCI-H23; 0.794 µM (active) in the test with NCI/ADR-RES; 0.0128 µM (active) in the test with OVCAR-5; 0.00219 µM (active) in the test with RPMI-8226; 0.144 µM (active) in the test with SK-MEL-28; 0.0143 µM (active) in the test on U-251. In addition, the GI50 in the test with UACC-62 was 0.0125 µM (active).

Consider `O=C1C2C3C4C1C1C2[C@H](OCc2ccccc2)C3C1[C@H]4OCc1ccccc1` (some centres undefined), for which the GI50 was > 100 µM (inactive) in the test with A498; 28.9 µM (inactive) in the test on COLO 205; 27.6 µM (inactive) with EKVX; 31.3 µM (inactive) in the test on HCC 2998; 22.5 µM (inactive) with HL-60; 20.5 µM (inactive) in the test on Hs-578T. Besides, the GI50 in the test with KM12 was 52.2 µM (inactive); in the test on LOX IMVI it was 40.4 µM (inactive); in the test with MDA-MB-231 it was 82 µM (inactive); in the test on MDA-MB-435, 61.4 µM (inactive); in the test on MOLT-4 it was 50.1 µM (inactive); with Malme-3M it was 76 µM (inactive). The GI50 in the test with NCI-H23 is 48.8 µM (inactive); with NCI/ADR-RES it was 19.7 µM (inactive); with OVCAR-5 it was 24.3 µM (inactive); in the test on RPMI-8226 it was 36.6 µM (inactive); in the test on SK-MEL-28 it was 40.2 µM (inactive); in the test with U-251, 77.3 µM (inactive). For the same molecule, the GI50 in the test with UACC-62 is 41.5 µM (inactive).

As to `CN1CCN(CCCCN2c3ccccc3Sc3cc(N=[N+]=[N-])ccc32)CC1`, the GI50 in the test with A498 was 9.14 µM (inactive); in the test with COLO 205 it was 1.74 µM (inactive); with EKVX it was 5.69 µM (inactive); in the test with HCC 2998, 1.39 µM (inactive); in the test with HL-60 it was 2.26 µM (inactive); in the test with Hs-578T, 1.95 µM (inactive). For the same molecule, the GI50 was 1.84 µM (inactive) in the test with KM12; 1.62 µM (inactive) in the test with LOX IMVI; 1.91 µM (inactive) in the test on MDA-MB-231; 1.7 µM (inactive) with MDA-MB-435; 1.77 µM (inactive) in the test with MOLT-4; 1.71 µM (inactive) in the test with Malme-3M. Besides, the GI50 in the test on NCI-H23 is 6.31 µM (inactive); in the test on NCI/ADR-RES it was 2.59 µM (inactive); in the test on OVCAR-5, 12.6 µM (inactive); with RPMI-8226 it was 2.31 µM (inactive); in the test on SK-MEL-28, 1.82 µM (inactive); in the test on U-251 it was 2.73 µM (inactive). The GI50 with UACC-62 is 2.13 µM (inactive).

Turning to `CCOC(=O)N1c2c(c3ccccc3n2C(=O)OCC)C(=O)C(OC)N1C(=O)OCC` (centres undefined), the GI50 was 25.4 µM (inactive) with A498; 15.5 µM (inactive) in the test on COLO 205; 22 µM (inactive) in the test on EKVX; 33.3 µM (inactive) in the test with HCC 2998; 17.2 µM (inactive) in the test on HL-60; 22.5 µM (inactive) with Hs-578T. Further, the GI50 was 17.9 µM (inactive) with KM12; 18.1 µM (inactive) in the test with LOX IMVI; 22.9 µM (inactive) in the test with MDA-MB-231; 32.1 µM (inactive) in the test with MDA-MB-435; 21.6 µM (inactive) in the test with MOLT-4; 31.9 µM (inactive) with Malme-3M. In addition, the GI50 in the test on NCI-H23 is 44.3 µM (inactive); in the test on NCI/ADR-RES it was 22.9 µM (inactive); in the test on OVCAR-5, 42 µM (inactive); with RPMI-8226, 23.9 µM (inactive); in the test on SK-MEL-28 it was 24.2 µM (inactive); in the test with U-251, 27.1 µM (inactive). Also, the GI50 with UACC-62 was 40.1 µM (inactive).

In general, GI50 refers to the concentration at which growth is held to half of that of the control.
